In patent US20240300902A1, “NOVEL TRANSGLUTAMINASE 2 INHIBITOR AND USE THEREOF” (MD BIOLAB CO., LTD., priority 2021, published 2024):

What was measured:
ACHN renal cancer cells = assay: Antitumor effect in in vivo renal cancerous tumors, ACHN xenograft, oral administration; design: species or system mice; details: oral administration daily
Description: To examine the antitumor effect of LDD3959, CanN.Cg-Foxn1nu/CrljOri mice were used as experimental animals. The mice were xenografted with ACHN renal cancer cells or CAKI-1 renal cancer cells to induce tumors. The ACHN renal cancer cell-transplanted group was orally administered with LDD3959, and the CAKI-1-transplanted group was intraperitoneally administered with LDD3959. In this test, the oral administration was performed daily and the intraperitoneal administration was performed twice a week.

MDA-MB231 cells = assay: Cell viability in breast cancer cell lines according to concentration; format: cell-based
Description: First breast cancer cells (MDA-MB-453, HCC-1806, HCC-1937: 10,000 cells/well, 100 μl) and second breast cancer cells (MDA-MB-231, MCF-7: 10,000 cells/well, 100 μl) were cultured in 96-well microplates.
After 24 hours, LDD3959 […] of various concentrations were added to each well, using a serum-free cell culture medium, and a reaction was allowed to proceed for 2 hours at 37° C. in the presence of 5% CO2. The culture medium was replaced with a culture medium containing 10% FSB, and a reaction was performed for 72 hours.
The existing culture medium was removed, and a new culture medium containing a water soluble tetrazolium salt was added. After that, the plate underwent a reaction at 37° C. in the presence of 5% CO2 for a duration in the range of 1 hour to 3 hours, and then absorbance was measured at 450 nm.

renal cancer cell lines = assay: Cell viability in various renal cancer cell lines (water soluble tetrazolium salt); format: cell-based; details: various concentrations, 48 hours
Description: Cells (20,000 cells/well, 100 μl) were incubated in a 96-well microplate. After 24 hours of the incubation, LDD3959 […] were added to each well in various concentrations by using a serum-free cell culture medium, and the cells were cultured at 37° C. in the presence of 5% CO2 for 2 hours. Next, the existing culture medium was replaced with a culture medium containing 10% FBS, and then incubation was carried out again for 48 hours. The existing culture medium was removed, and a new culture medium containing a water soluble tetrazolium salt was added. After that, the plate was incubated at 37° C. in the presence of 5% CO2 for a duration in the range of 1 hour to 3 hours, and then absorbance was measured at 450 nm.

With `O=C1C(Cl)=C(Cl)C(=O)c2[nH]c(-c3ccc(Br)c(F)c3)nc21` [LDD3959, 2-(4-bromo-3-fluorophenyl)-5,6-dichloro-1H-benzo[d]imidazole-4,7-dione] the “tumor growth inhibitory effect” value (ACHN renal cancer cells) was “concentration-dependent tumor growth inhibitory effects”, the “effective concentration for apoptosis” value (MDA-MB231 cells; MDA-MB231, highest expression level of transglutaminase 2, 72 hours) was “the effective concentration was lowest, and the efficacy was best” and the “acting concentration compared with conventional transglutaminase 2 inhibitors” value (MDA-MB231 cells; breast cancer cell lines) was “lower concentrations than conventional transglutaminase 2 inhibitors”. The “cell viability in renal cancer cells” value (renal cancer cell lines) was “cancer cells in a variety of renal cancer cells were killed”.
